Laboratory results from patent US20250160329A1, “AGROCHEMICAL ADJUVANTS” (Croda International Pic, priority 2022, published 2025).

System: Botrytis cinerea (ATCC 90479)
Assay: Botrytis cinerea hyphal growth inhibition on PDA agar (colony diameter), adjuvant with or without pyraclostrobin
Type: cell-based
Conditions: for Fold Change in Growth Inhibition: 48 h, 22° C., relative to pyraclostrobin alone
Excerpt: As a measure of the adjuvant activity in relation to the activity of the fungicide alone (e.g. pyraclostrobin) to B. cinerea a value of percent inhibition (adjuvant and fungicide) divided by percent inhibition (fungicide) can be defined, with higher values desired. A value of 1 would therefore represent equal activity of the adjuvant/fungicide combination to the fungicide alone, whereas a value above 1 would represent higher activity with the adjuvant/fungicide combination than the fungicide alone. The actives of the present invention may have a value greater than 1. Preferably greater than 1.5, most preferably greater than 2.
Percent Inhibition—The percent inhibition will be understood to represent the amount the fungicide and/or adjuvant that inhibits the visible growth of the microorganism after 48 hours incubation at 22° C. relative to vehicle treated controls. This is calculated using the following formula:
[formula] • where: • ØC=diameter of the colony grown on agar supplemented with vehicle (i.e. vehicle treated control), and • ØT=diameter of the colony grown on agar supplemented with fungicide and/or adjuvant formulated in an appropriate vehicle (i.e. solvent such as water C2H5OH, CH3OH, CH3CN, DMSO).
Fold Change—The fold change is a measure of the adjuvant/fungicide combination in inhibiting a microorganism compared to the fungicide alone. This indicates how the adjuvant performs relative to the fungicide alone. This is calculated using the following formula:
INHAF/INHF • where: • INHAF=percent inhibition of fungal growth when treated with fungicide and adjuvant, and • INHF=percent inhibition of fungal growth when treated with fungicide alone.
Botrytis cinerea (ATCC 90479) was cultured on Difco Potato Dextrose Agar (PDA) for 7 days with diurnal UV cycles (12 h UV light and 12 h dark). Spores were harvested in a buffered, sterile saline solution (w/v: 0.9% NaCl with 1% Tween 80) and counted using a haemocytometer. The spore suspension was adjusted to a final concentration of 8.5×10^6 spores/mL to create a standardised inoculum.
To prepare hyphal fragments for adjuvant testing, 8.5×10^4 spores were used to inoculate 10 mL of Difco Potato Dextrose Broth in a 150×25 mm tube. The tube was incubated at 220 RPM, 22° C. for 48 hours.
To create hyphal fragments from the culture, the culture was transferred to a 50 mL plastic conical tube containing approximately 20 sterile 5 mm diameter glass beads and vortexed for 5 min. […]
Fungicides and adjuvants were dissolved in methanol and added to molten PDA (−50° C.) and then the agar was distributed in the wells of 12 well multiwell plates (1 mL/well). […] The plates were incubated at 22° C. for 48 hours and then the colony diameter was measured using a digital caliper. […]

## O=C1N/C(=C\c2ccccc2)C(=O)N2CCCCC12 (stereo not shown) [DKP (Ia), cyclo(-dhPhe-Pip) diketopiperazine]
Adjuvant 32 μg/mL + pyraclostrobin (Pyra) 0.0156 μg/mL
  Fold Change in Growth Inhibition: 3.18
Adjuvant 32 μg/mL + pyraclostrobin (Pyra) 0.0313 μg/mL
  Fold Change in Growth Inhibition: 1.36
Adjuvant 32 μg/mL + pyraclostrobin (Pyra) 0.0625 μg/mL
  Fold Change in Growth Inhibition: 1.76
Adjuvant alone at […] (so in the source), no fungicide
  fungicidal activity against B. cinerea (adjuvant alone): no fungicidal activity
